Assay results from patent publication US20130064794A1, “Substituted Carbonyloxymethylphosphoramidate Compounds and Pharmaceutical Compositions for the Treatment of Viral Infections” (IDENIX PHARMACEUTICALS, INC., priority 2011, published 2013).
Read-outs that look alike come from different tables or passages of the source.

Experiments:
Type in all cases: cell-based
HCV genotype 1b replicon = assay: microbe, parasite or virus in culture; conditions: read-out: HCV Replicon EC50
Protocol: Huh-7-derived cell line (Zluc) that harbors an HCV genotype 1b replicon and a luciferase reporter gene was grown in Dulbecco's Modified Eagle Medium (DMEM) supplemented with 10% fetal bovine serum, 2 mM GlutaMAX, 1% MEM nonessential amino acids, 100 IU/mL penicillin, 100 μg/mL streptomycin, and 0.5 mg/mL Geneticin® (G418). For dose response testing the cells were seeded in 96-well plates at 7.5×10^3 cells per well in a volume of 50 μL, and incubated at 37° C./5% CO2. Drug solutions were made up freshly in Huh-7 media as 2× stocks. Ten additional 5-fold dilutions were prepared from these stocks in DMEM without G418. At least three hours after Zluc cells were seeded, drug treatment was initiated by adding 50 μL of drug dilutions to the plates in duplicate. […] Cells were then incubated at 37° C./5% CO2. Alternatively compounds were tested at two concentrations (10 nM and 100 nM). […] For this, media was removed from the plates via gentle tapping. Fifty microliters of ONE-glo luciferase assay reagent was added to each well. […] The EC50 values were calculated from dose response curves from the resulting best-fit equations determined by Microsoft Excel and XLfit 4.1 software.

[1] = system: Zluc cells (Huh-7-derived cell line); assay: Cytotoxicity evaluation, CellTiter-Blue Cell Viability Assay; conditions: read-out: HCV Replicon CC50
Protocol: (§1) For cytotoxicity evaluation, Zluc cells were treated with compound as described above, and cell viability was monitored using the CellTiter-Blue Cell Viability Assay (Promega) by adding 20 μL of the assay solution to each well. The plates were then incubated at 37° C./5% CO2 for at least 3 hours.

[2] = as above; conditions: human, Zluc cells (Huh-7-derived cell line), read-out: HCV Replicon CC50
Protocol: as §1

[3] = Zluc cells, HCV genotype 1b replicon, luciferase, 72 hours of incubation

Which EC50 (HCV genotype 1b replicon; [3]) does the source give for `CCOC(=O)OC(C)OP(=O)(N[C@@H](C)C(=O)OC(C)C)OC[C@H]1O[C@@H](n2cnc3c(OC)nc(N)nc32)[C@](C)(F)[C@@H]1O` (single isomer, unassigned) [Compound 16] here?
The EC50 was under 0.1 µM.

And the CC50 [1]?
The CC50 was over 50 µM.

For `CCOC(=O)OC(C)OP(=O)(N[C@@H](C)C(=O)OC(C)C)OC[C@H]1O[C@@H](n2cnc3c(OC)nc(N)nc32)[C@](C)(F)[C@@H]1O` (single isomer, unassigned) [Compound 17], which EC50 (HCV genotype 1b replicon; [3]) is on record?
The EC50 was under 0.1 µM.

What about the CC50 [1] of the same molecule?
The CC50 was over 50 µM.

What does the source list for `CCNC(=O)OCOP(=O)(N[C@H](C(=O)OCC)C(C)(C)C)OC[C@H]1O[C@@H](n2cnc3c(OCC)nc(N)nc32)[C@](C)(F)[C@@H]1O` (single isomer, unassigned) [Compound 21]?
EC50 (HCV genotype 1b replicon; Hepatitis C virus, 72 h): 1 to 10 µM; CC50 [2]: > 50 µM

With `CCNC(=O)OCOP(=O)(N[C@H](C(=O)OCC)C(C)(C)C)OC[C@H]1O[C@@H](n2cnc3c(OCC)nc(N)nc32)[C@](C)(F)[C@@H]1O` (single isomer, unassigned) [Compound 22] as the molecule, how does the EC50 (HCV genotype 1b replicon; Hepatitis C virus, 72 h) read?
Its EC50 is 1 to 10 µM.

And the CC50 [2]?
The CC50 was over 50 µM.

Which EC50 (HCV genotype 1b replicon; Hepatitis C virus, 72 h) does the source give for `C[C@@]1(O)[C@H](O)[C@@H](COP(=O)(O)NCc2ccccc2)O[C@H]1n1cnc2c(=O)[nH]c(N)nc21` [Compound 1] here?
Its EC50 is 0.1 to 1 µM.

What about the CC50 [2] of the same molecule?
Its CC50 is over 50 µM.

Which EC50 (HCV genotype 1b replicon; Hepatitis C virus, 72 h) does the source give for `CC(C)(C)C(=O)OCOP(=O)(NCc1ccccc1)OC[C@H]1O[C@@H](n2cnc3c(=O)[nH]c(N)nc32)[C@](C)(O)[C@@H]1O` (stereo partly drawn) [Compound 2] here?
Its EC50 is under 0.1 µM.

And the CC50 [2]?
Its CC50 is over 50 µM.

For `COc1nc(N)nc2c1ncn2[C@@H]1O[C@H](COP(=O)(NCc2ccccc2)OC(OC(=O)OC(C)C)C(C)C)[C@@H](O)[C@@]1(C)O` (stereo partly drawn) [Compound 6], which EC50 (HCV genotype 1b replicon; Hepatitis C virus, 72 h) is on record?
Its EC50 is under 0.1 µM.

And the CC50 [2]?
Its CC50 is under 50 µM.

Which EC50 (HCV genotype 1b replicon; Hepatitis C virus, 72 h) does the source give for `COc1nc(N)nc2c1ncn2[C@@H]1O[C@H](COP(=O)(N[C@@H](CC(C)C)C(=O)OC(C)C)OCOC(=O)OC(C)C)[C@@H](O)[C@@]1(C)O` (stereo partly drawn) [Compound 7] here?
Its EC50 is under 0.1 µM.

And the CC50 [2]?
The CC50 was over 50 µM.

Which results are given for `CCOc1nc(N)nc2c1ncn2[C@@H]1O[C@H](COP(=O)(N[C@@H](C)C(=O)OC(C)C)OC(C)OC(=O)SCC)[C@@H](O)[C@@]1(C)F` (stereo partly drawn) [Compound 24]?
EC50 (HCV genotype 1b replicon; Hepatitis C virus, 72 h): < 0.1 µM; CC50 [2]: > 50 µM
